A word on the IC50: it is the concentration at which inhibition is half-maximal.

Like-named read-outs stand apart in the source and are kept apart here.

One experiment deals with orexin-1 (Homo sapiens (Human), UniProt O43613). The experiment is described as follows: Intracellular calcium measurement (FLIPR), CHO cells expressing human orexin-1 receptor, 3 nM orexin-A. The following applies: read-out: IC50 OX1. In kind it is cell-based. Summed up: (§1)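 Fluo-4 AM-loaded CHO cells; antagonist preincubation 120 min, then 3 nM orexin-A (final) in HBSS/0.1% BSA/20 mM HEPES. FLIPR read at 1 s intervals; peak height vs. agonist-plus-vehicle control → IC50.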
(In general: Calcium assays in cells follow changes in intracellular calcium, usually with a dye or a luminescent sensor.)

For another experiment, the target named is human orexin-2 receptor (Homo sapiens (Human), UniProt O43614). Kind of experiment: Intracellular calcium measurement (FLIPR), CHO cells expressing human orexin-2 receptor, 3 nM orexin-A. The experiment is classed as cell-based. The following applies: read-out: IC50 OX2. The essentials: as §1
Where [1] appears, read: CHO cells expressing human orexin-1 receptor, FLIPR, 3 nM orexin-A, geometric mean if determined several times.
[2] abbreviates: CHO cells expressing human orexin-2 receptor, FLIPR, 3 nM orexin-A, geometric mean if determined several times.

Chain of orexin-1 (O43613 whole entry): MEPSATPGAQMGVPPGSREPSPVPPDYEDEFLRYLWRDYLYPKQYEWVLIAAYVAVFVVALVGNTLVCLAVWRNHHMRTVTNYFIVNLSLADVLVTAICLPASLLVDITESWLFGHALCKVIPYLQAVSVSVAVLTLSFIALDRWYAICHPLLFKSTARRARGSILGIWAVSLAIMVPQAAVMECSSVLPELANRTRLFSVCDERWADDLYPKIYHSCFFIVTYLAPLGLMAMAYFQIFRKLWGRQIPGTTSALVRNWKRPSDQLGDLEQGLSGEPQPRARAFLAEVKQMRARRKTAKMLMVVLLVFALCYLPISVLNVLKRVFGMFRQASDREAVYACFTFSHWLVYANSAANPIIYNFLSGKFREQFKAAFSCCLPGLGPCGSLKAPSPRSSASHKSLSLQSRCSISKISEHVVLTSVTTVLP
Chain of human orexin-2 receptor (O43614 whole entry): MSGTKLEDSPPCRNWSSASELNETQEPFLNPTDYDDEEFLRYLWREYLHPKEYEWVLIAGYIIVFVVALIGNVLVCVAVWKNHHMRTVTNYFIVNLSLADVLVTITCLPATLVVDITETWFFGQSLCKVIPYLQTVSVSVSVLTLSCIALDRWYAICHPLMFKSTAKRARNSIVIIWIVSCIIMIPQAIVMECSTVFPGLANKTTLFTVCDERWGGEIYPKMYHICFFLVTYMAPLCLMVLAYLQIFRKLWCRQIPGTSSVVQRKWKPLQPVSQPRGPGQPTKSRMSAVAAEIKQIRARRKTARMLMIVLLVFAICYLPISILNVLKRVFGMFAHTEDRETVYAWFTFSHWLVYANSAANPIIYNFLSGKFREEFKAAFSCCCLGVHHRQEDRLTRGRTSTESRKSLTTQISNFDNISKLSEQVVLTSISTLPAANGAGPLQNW

Consider `COc1cc(C)cc(-c2nc([C@@H]3CCCN3C(=O)c3cc(C)ccc3-n3nccn3)no2)c1` [compound 409, {(S)-2-[5-(3-Methoxy-5-methyl-phenyl)-[1,2,4]oxadiazol-3-yl]-pyrrolidin-1-yl}-(5-methyl-2-[1,2,3]triazol-2-yl-phenyl)-methanone], for which the half-inhibitory concentration (IC50) is 45 nM on orexin-1 (setting [1]) and 12 nM at human orexin-2 receptor (setting [2]).
As for `COc1ccc(C)c(-c2nc([C@@H]3CCCN3C(=O)c3cc(C)ccc3-n3nccn3)no2)c1` [compound 410, {(S)-2-[5-(5-Methoxy-2-methyl-phenyl)-[1,2,4]oxadiazol-3-yl]-pyrrolidin-1-yl}-(5-methyl-2-[1,2,3]triazol-2-yl-phenyl)-methanone], the IC50 on orexin-1 (setting [1]) came to 140 nM; at human orexin-2 receptor (setting [2]), 14 nM.
In the case of `COc1ccc(C)cc1-c1nc([C@@H]2CCCN2C(=O)c2cc(C)ccc2-n2nccn2)no1` [compound 411, {(S)-2-[5-(2-Methoxy-5-methyl-phenyl)-[1,2,4]oxadiazol-3-yl]-pyrrolidin-1-yl}-(5-methyl-2-[1,2,3]triazol-2-yl-phenyl)-methanone], the IC50 is 99 nM on orexin-1 (setting [1]) and 9 nM on human orexin-2 receptor (setting [2]).
Turning to `COc1cc(C)cc(-c2nc([C@@H]3CCCN3C(=O)c3ccc(C)cc3-n3nccn3)no2)c1` [compound 412, {(S)-2-[5-(3-Methoxy-5-methyl-phenyl)-[1,2,4]oxadiazol-3-yl]-pyrrolidin-1-yl}-(4-methyl-2-[1,2,3]triazol-2-yl-phenyl)-methanone], the IC50 was found to be 109 nM on orexin-1 (setting [1]) and 80 nM at human orexin-2 receptor (setting [2]).
For the molecule `COc1ccc(C)c(-c2nc([C@@H]3CCCN3C(=O)c3ccc(C)cc3-n3nccn3)no2)c1` [compound 413, {(S)-2-[5-(5-Methoxy-2-methyl-phenyl)-[1,2,4]oxadiazol-3-yl]-pyrrolidin-1-yl}-(4-methyl-2-[1,2,3]triazol-2-yl-phenyl)-methanone], the figures for the IC50 on orexin-1 (setting [1]) and at human orexin-2 receptor (setting [2]) were 163 nM and 30 nM, respectively.
For `COc1ccc(C)cc1-c1nc([C@@H]2CCCN2C(=O)c2ccc(C)cc2-n2nccn2)no1` [compound 414, {(S)-2-[5-(2-Methoxy-5-methyl-phenyl)-[1,2,4]oxadiazol-3-yl]-pyrrolidin-1-yl}-(4-methyl-2-[1,2,3]triazol-2-yl-phenyl)-methanone], the IC50 at orexin-1 (setting [1]) came to 331 nM; on human orexin-2 receptor (setting [2]), 35 nM.
On to `COc1cc(C)cc(-c2nc([C@@H]3CCCN3C(=O)c3cc(Cl)ccc3-n3nccn3)no2)c1` [compound 415], for which the IC50 amounted to 193 nM at orexin-1 (setting [1]) and 49 nM on human orexin-2 receptor.
As to `COc1ccc(C)c(-c2nc([C@@H]3CCCN3C(=O)c3cc(Cl)ccc3-n3nccn3)no2)c1` [compound 416], the figures for the IC50 at orexin-1 and at human orexin-2 receptor (setting [2]) were 152 nM and 20 nM, respectively.
As for `COc1ccc(C)cc1-c1nc([C@@H]2CCCN2C(=O)c2cc(Cl)ccc2-n2nccn2)no1` [compound 417], the half-maximal inhibitory concentration (IC50) was 271 nM on orexin-1 (setting [1]) and 21 nM at human orexin-2 receptor (setting [2]).
For the molecule `COc1cc(C)cc(-c2nc([C@@H]3CCCN3C(=O)c3ccc(Cl)cc3-n3nccn3)no2)c1` [compound 418], the figures for the IC50 at orexin-1 and at human orexin-2 receptor (setting [2]) were 85 nM and 25 nM, respectively.
In the case of `COc1ccc(C)c(-c2nc([C@@H]3CCCN3C(=O)c3ccc(Cl)cc3-n3nccn3)no2)c1` [compound 419], the concentration for half-maximal inhibition (IC50) was 207 nM at orexin-1 (setting [1]) and 16 nM at human orexin-2 receptor.
For `Cc1ccc(-n2nccn2)c(C(=O)N2CCC[C@H]2c2cc(-c3cccc(C)c3C)no2)c1` [compound 422, {(S)-2-[3-(2,3-Dimethyl-phenyl)-isoxazol-5-yl]-pyrrolidin-1-yl}-(5-methyl-2-[1,2,3]triazol-2-yl-phenyl)-methanone], the values for the IC50 at orexin-1 (setting [1]) and at human orexin-2 receptor (setting [2]) were 152 nM and 4 nM, respectively.
Taken in the same sequence, the figures for `Cc1cc(C)cc(-c2cc([C@@H]3CCCN3C(=O)c3cc(C)ccc3-n3nccn3)on2)c1` [compound 423, {(S)-2-[3-(3,5-Dimethyl-phenyl)-isoxazol-5-yl]-pyrrolidin-1-yl}-(5-methyl-2-[1,2,3]triazol-2-yl-phenyl)-methanone] were 81 nM and 39 nM.
Take `Cc1ccc(-n2nccn2)c(C(=O)N2CCC[C@H]2c2cc(-c3cccc(Cl)c3C)no2)c1` [compound 424]: the values for the IC50 at orexin-1 (setting [1]) and at human orexin-2 receptor (setting [2]) were 8 nM and 4 nM, respectively.
In the same order, the values of `Cc1ccc(-n2nccn2)c(C(=O)N2CCC[C@H]2c2cc(-c3ccccc3OC(F)(F)F)no2)c1` [compound 425, (5-Methyl-2-[1,2,3]triazol-2-yl-phenyl)-{(S)-2-[3-(2-trifluoromethoxy-phenyl)-isoxazol-5-yl]-pyrrolidin-1-yl}-methanone] are 4 nM and 10 nM.
Consider `COc1ncccc1-c1cc([C@@H]2CCCN2C(=O)c2cc(C)ccc2-n2nccn2)on1` [compound 426, {(S)-2-[3-(2-Methoxy-pyridin-3-yl)-isoxazol-5-yl]-pyrrolidin-1-yl}-(5-methyl-2-[1,2,3]triazol-2-yl-phenyl)-methanone], for which the half-maximal inhibitory concentration (IC50) on orexin-1 (setting [1]) is 414 nM; at human orexin-2 receptor (setting [2]), 30 nM.
On to `Cc1ccc(-n2nccn2)c(C(=O)N2CCC[C@H]2c2cc(-c3cccnc3OC(C)C)no2)c1` [compound 427, {(S)-2-[3-(2-Isopropoxy-pyridin-3-yl)-isoxazol-5-yl]-pyrrolidin-1-yl}-(5-methyl-2-[1,2,3]triazol-2-yl-phenyl)-methanone], for which the IC50 at orexin-1 (setting [1]) is 80 nM; at human orexin-2 receptor (setting [2]), 292 nM.
In the case of `CCOc1ncccc1-c1cc([C@@H]2CCCN2C(=O)c2cc(C)ccc2-n2nccn2)on1` [compound 428, {(S)-2-[3-(2-Ethoxy-pyridin-3-yl)-isoxazol-5-yl]-pyrrolidin-1-yl}-(5-methyl-2-[1,2,3]triazol-2-yl-phenyl)-methanone], the IC50 on orexin-1 (setting [1]) was determined as 67 nM; at human orexin-2 receptor (setting [2]), 28 nM.
Taken in the same sequence, the figures for `COc1c(F)cccc1-c1cc([C@@H]2CCCN2C(=O)c2cc(C)ccc2-n2nccn2)on1` [compound 429, {(S)-2-[3-(3-Fluoro-2-methoxy-phenyl)-isoxazol-5-yl]-pyrrolidin-1-yl}-(5-methyl-2-[1,2,3]triazol-2-yl-phenyl)-methanone] were 98 nM and 26 nM.
In the case of `Cc1ccc(-n2nccn2)c(C(=O)N2CCC[C@H]2c2cc(-c3ccccc3)on2)c1` [compound 430, (5-Methyl-2-[1,2,3]triazol-2-yl-phenyl)-[(S)-2-(5-phenyl-isoxazol-3-yl)-pyrrolidin-1-yl]-methanone], the values for the IC50 at orexin-1 (setting [1]) and on human orexin-2 receptor (setting [2]) were 359 nM and 51 nM, respectively.
For `Cc1ccc(-n2nccn2)c(C(=O)N2CCC[C@H]2c2cc(-c3cccc(Cl)c3C)on2)c1` [compound 431], the half-inhibitory concentration (IC50) on orexin-1 (setting [1]) was determined as 19 nM; at human orexin-2 receptor (setting [2]) it was 2 nM.
Regarding `COc1cc(C(=O)N2CCC[C@H]2c2cc(-c3ccccc3)on2)c(-n2nccn2)cc1C` [compound 432, (5-Methoxy-4-methyl-2-[1,2,3]triazol-2-yl-phenyl)-[(S)-2-(5-phenyl-isoxazol-3-yl)-pyrrolidin-1-yl]-methanone], the results for the half-inhibitory concentration (IC50) on orexin-1 (setting [1]) and at human orexin-2 receptor (setting [2]) were 322 nM and 16 nM, respectively.
Consider `COc1cc(C(=O)N2CCC[C@H]2c2cc(-c3cccc(Cl)c3C)on2)c(-n2nccn2)cc1C` [compound 433], for which the concentration for half-maximal inhibition (IC50) at orexin-1 (setting [1]) is 19 nM; at human orexin-2 receptor (setting [2]), 1 nM.
With `Cc1ccc(-n2nccn2)c(C(=O)N2CCC[C@H]2c2cc(-c3ccccc3OC(F)(F)F)on2)c1` [compound 434, (5-Methyl-2-[1,2,3]triazol-2-yl-phenyl)-{(S)-2-[5-(2-trifluoromethoxy-phenyl)-isoxazol-3-yl]-pyrrolidin-1-yl}-methanone], the IC50 came to 21 nM on orexin-1 (setting [1]) and 5 nM at human orexin-2 receptor (setting [2]).
Consider `Cc1ccc(C(=O)N2CCC[C@H]2c2cc(-c3ccccc3OC(F)(F)F)on2)c(-n2nccn2)c1` [compound 435, (4-Methyl-2-[1,2,3]triazol-2-yl-phenyl)-{(S)-2-[5-(2-trifluoromethoxy-phenyl)-isoxazol-3-yl]-pyrrolidin-1-yl}-methanone], for which the results for the concentration for half-maximal inhibition (IC50) at orexin-1 (setting [1]) and at human orexin-2 receptor (setting [2]) were 35 nM and 31 nM, respectively.
Consider `COc1cc(C(=O)N2CCC[C@H]2c2cc(-c3ccccc3OC(F)(F)F)on2)c(-n2nccn2)cc1C` [compound 436, (5-Methoxy-4-methyl-2-[1,2,3]triazol-2-yl-phenyl)-{(S)-2-[5-(2-trifluoromethoxy-phenyl)-isoxazol-3-yl]-pyrrolidin-1-yl}-methanone], for which the IC50 on orexin-1 (setting [1]) turned out to be 49 nM; at human orexin-2 receptor (setting [2]) it was 13 nM.
Take `COc1cc(C(=O)N2CCC[C@H]2c2cc(-c3ccccc3OC(F)(F)F)on2)c(-n2nccn2)cc1Cl` [compound 437]: the IC50 turned out to be 62 nM at orexin-1 and 15 nM at human orexin-2 receptor (setting [2]).
Regarding `Cc1ccc(-n2nccn2)c(C(=O)N2CCC[C@H]2c2nnc(-c3ccccc3)o2)c1` [compound 439, (5-Methyl-2-[1,2,3]triazol-2-yl-phenyl)-[(S)-2-(5-phenyl-[1,3,4]oxadiazol-2-yl)-pyrrolidin-1-yl]-methanone], the 50% inhibitory concentration (IC50) came out at 1800 nM at orexin-1 (setting [1]) and 1410 nM at human orexin-2 receptor (setting [2]).
In the case of `Cc1ccc(-n2nccn2)c(C(=O)N2CCC[C@H]2c2nnc(-c3cccc(Cl)c3C)o2)c1` [compound 440], the IC50 on orexin-1 (setting [1]) amounted to 141 nM; on human orexin-2 receptor (setting [2]), 21 nM.
For `Cc1ccc(-n2nccn2)c(C(=O)N2CCC[C@H]2c2nnc(-c3ccccc3C)o2)c1` [compound 441, (5-Methyl-2-[1,2,3]triazol-2-yl-phenyl)-[(S)-2-(5-o-tolyl-[1,3,4]oxadiazol-2-yl)-pyrrolidin-1-yl]-methanone], the IC50 on orexin-1 (setting [1]) amounted to 946 nM; at human orexin-2 receptor (setting [2]) it was 105 nM.
As to `Cc1ccc(-n2nccn2)c(C(=O)N2CCC[C@H]2c2nnc(-c3ccccc3OC(F)(F)F)o2)c1` [compound 442, (5-Methyl-2-[1,2,3]triazol-2-yl-phenyl)-{(S)-2-[5-(2-trifluoromethoxy-phenyl)-[1,3,4]oxadiazol-2-yl]-pyrrolidin-1-yl}-methanone], the 50% inhibitory concentration (IC50) on orexin-1 (setting [1]) worked out at 184 nM; at human orexin-2 receptor (setting [2]), 118 nM.

Values taken from US9493446B2, “Orexin receptor antagonists which are [ortho bi-(hetero-)aryl]-[2-(meta bi-(hetero-)aryl)-pyrrolidin-1-yl]-methanone derivatives” (Actelion Pharmaceuticals Ltd, priority 2012, dated 2016).
